Where “and” joins values, the source holds several entries; their conditions need not be identical. Equal values may be shown once. Inconclusive results and toxic doses are left out. Numbered stars: 1 amine (or outer) side, 2 acyl side, 3 side chain; on linkers, the order of the positions; unused ones are H or OH. Bridge positions count the residues as written; N and C are the ends. Square brackets hold non-standard residues; d marks the D form. Peptide text beside a SMILES is read from it. I, II: the chains in the order shown. Actinocin(9to1) = Cc1c2oc3c(C)ccc(C(=O)[*:1])c3nc-2c(C(=O)[*:2])c(N)c1=O; NMeV = CN[CH](C(=O)O)C(C)C; Pip = O=C(O)[CH]1CCCCN1; Sar = CNCC(=O)O
System: P388 leukemia ip, CD2F1 mice, survival T/C
Test: NCI In Vivo Anticancer Drug Screen. Data for tumor model P388 Leukemia (intraperitoneal) in CD2F1 (CDF1) mice
Conditions: endpoint: median survival time, higher = longer survival
Method in brief: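 Mice carrying the transplanted tumor received test compound or vehicle. Survival was recorded in each group, and the value is the treated-group measurement divided by that of the vehicle-treated control group.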

[1] = dose: 150.0 micrograms/kg/injection, schedule: Q01DX009 (ip), vehicle: saline
[2] = dose: 50.0 mg/kg/injection, schedule: Q01DX009 (ip), vehicle: saline with Tween-80
[3] = dose: 100.0 mg/kg/injection, schedule: Q01DX009 (ip), vehicle: saline with Tween-80

## CCC(C)N(CCNc1cc(OC)cc2cccnc12)CCC(C)C (centres undefined)
dose: 50.0 mg/kg/injection, schedule: Q01DX005 (ip), vehicle: saline
  T/C: 100 % of control
dose: 100.0 mg/kg/injection, schedule: Q01DX005 (ip), vehicle: saline
  T/C: 97 % of control

## COC/C(=N/Nc1ccc([N+](=O)[O-])cc1[N+](=O)[O-])c1ccccc1
dose: 100.0 mg/kg/injection, schedule: Q04DX003 (ip), vehicle: saline with Tween-80
  T/C: 109 % of control
dose: 200.0 mg/kg/injection, schedule: Q04DX003 (ip), vehicle: saline with Tween-80
  T/C: 109 % of control
dose: 400.0 mg/kg/injection, schedule: Q04DX003 (ip), vehicle: saline with Tween-80
  T/C: 90 % of control

## Cc1c2oc3c(C)ccc(C(=O)NC4C(=O)NC(C(C)C)C(=O)N5CCCCC5C(=O)N(C)CC(=O)N(C)C(C(C)C)C(=O)OC4C)c3nc-2c(C(=O)NC2C(=O)NC(C(C)C)C(=O)N3CCCCC3C(=O)N(C)CC(=O)N(C)C(C(C)C)C(=O)OC2C)c(N)c1=O (centres undefined) (I: TV[Pip][Sar][NMeV] / II: TV[Pip][Sar][NMeV]; ester I:1-I:C, II:1-II:C; linker I:N-II:N via Actinocin(9to1); configuration not given here)
dose: 0.39 mg/kg/injection, schedule: Q01DX009 (ip), vehicle: saline with Tween-80
  T/C: 110 % of control
dose: 0.78 mg/kg/injection, schedule: Q01DX009 (ip), vehicle: saline with Tween-80
  T/C: 119 % of control
dose: 1.56 mg/kg/injection, schedule: Q01DX009 (ip), vehicle: saline with Tween-80
  T/C: 180 % of control
dose: 3.12 mg/kg/injection, schedule: Q01DX009 (ip), vehicle: saline with Tween-80
  T/C: 190 % of control
dose: 6.25 mg/kg/injection, schedule: Q01DX009 (ip), vehicle: saline with Tween-80
  T/C: 165 % of control and 209 % of control
dose: 12.5 mg/kg/injection, schedule: Q01DX009 (ip), vehicle: saline with Tween-80
  T/C: 195 % of control

## CC1(C)Cc2nc3ccccc3nc2-c2ccccc21
dose: 50.0 mg/kg/injection, schedule: Q01DX005 (ip), vehicle: saline with Tween-80
  T/C: 101 % of control
dose: 100.0 mg/kg/injection, schedule: Q01DX005 (ip), vehicle: saline with Tween-80
  T/C: 98 % of control
dose: 200.0 mg/kg/injection, schedule: Q01DX005 (ip), vehicle: saline with Tween-80
  T/C: 100 % of control

## CC(C)C12CCC(=O)C=C1CCCC2O (centres undefined)
dose: 100.0 mg/kg/injection, schedule: Q01DX009 (ip), vehicle: saline sonified
  T/C: 90 % of control
dose: 200.0 mg/kg/injection, schedule: Q01DX009 (ip), vehicle: saline sonified
  T/C: 100 % of control
dose: 400.0 mg/kg/injection, schedule: Q01DX009 (ip), vehicle: saline sonified
  T/C: 109 % of control

## [N-]=[N+]=CC(=O)CCC(N)C(=O)O (centres undefined)
dose: 0.04 mg/kg/injection, schedule: Q01DX009 (ip), vehicle: saline
  T/C: 121 % of control
dose: 0.05 mg/kg/injection, schedule: Q01DX009 (ip), vehicle: saline
  T/C: 158 % of control
dose: 0.08 mg/kg/injection, schedule: Q01DX005 (ip), vehicle: saline
  T/C: 118 % of control
dose: 0.08 mg/kg/injection, schedule: Q01DX005 (iv), vehicle: saline
  T/C: 109 % of control
dose: 0.08 mg/kg/injection, schedule: Q01DX009 (ip), vehicle: saline
  T/C: 155 % of control
dose: 0.1 mg/kg/injection, schedule: Q01DX009 (ip), vehicle: saline
  T/C: 178 % of control
dose: 0.15 mg/kg/injection, schedule: Q01DX005 (ip), vehicle: saline
  T/C: 121 % of control
dose: 0.15 mg/kg/injection, schedule: Q01DX005 (iv), vehicle: saline
  T/C: 110 % of control
dose: 0.15 mg/kg/injection, schedule: Q01DX009 (ip), vehicle: saline
  T/C: 161 % of control and 171 % of control
dose: 0.2 mg/kg/injection, schedule: Q01DX009 (ip), vehicle: saline
  T/C: 206 % of control
dose: 0.3 mg/kg/injection, schedule: Q01DX005 (iv), vehicle: saline
  T/C: 112 % of control
dose: 0.3 mg/kg/injection, schedule: Q01DX009 (ip), vehicle: saline
  T/C: 103 % of control and 105 % of control
dose: 0.4 mg/kg/injection, schedule: Q01DX009 (ip), vehicle: saline
  T/C: 235 % of control
dose: 0.6 mg/kg/injection, schedule: Q01DX005 (ip), vehicle: saline
  T/C: 153 % of control
dose: 0.6 mg/kg/injection, schedule: Q01DX009 (ip), vehicle: saline
  T/C: 87 % of control
dose: 0.8 mg/kg/injection, schedule: Q01DX009 (ip), vehicle: saline
  T/C: 94 % of control
dose: 1.0 mg/kg/injection, schedule: Q04DX003 (ip), vehicle: saline
  T/C: 160 % of control
dose: 2.0 mg/kg/injection, schedule: Q04DX003 (ip), vehicle: saline
  T/C: 158 % of control
dose: 4.0 mg/kg/injection, schedule: Q04DX003 (ip), vehicle: saline
  T/C: 180 % of control
dose: 8.0 mg/kg/injection, schedule: Q04DX003 (ip), vehicle: saline
  T/C: 202 % of control
dose: 16.0 mg/kg/injection, schedule: Q04DX003 (ip), vehicle: saline
  T/C: 247 % of control
dose: 54.0 micrograms/kg/injection, schedule: Q01DX009 (ip), vehicle: saline
  T/C: 151 % of control and 158 % of control
dose: 62.5 micrograms/kg/injection, schedule: Q01DX009 (ip), vehicle: saline
  T/C: 160 % of control
dose: 90.0 micrograms/kg/injection, schedule: Q01DX009 (ip), vehicle: saline
  T/C: 166 % of control and 182 % of control
dose: 125.0 micrograms/kg/injection, schedule: Q01DX009 (ip), vehicle: saline
  T/C: 190 % of control
[1]
  T/C: 188 % of control and 192 % of control
dose: 250.0 micrograms/kg/injection, schedule: Q01DX009 (ip), vehicle: saline
  T/C: 109 % of control and 208 % of control and 236 % of control
dose: 417.0 micrograms/kg/injection, schedule: Q01DX009 (ip), vehicle: saline
  T/C: 221 % of control and 90 % of control
dose: 500.0 micrograms/kg/injection, schedule: Q01DX009 (ip), vehicle: saline
  T/C: 94 % of control

## Cc1cc(O)c(O)c(Oc2cc(C)cc(O)c2O)c1
dose: 75.0 micrograms/kg/injection, schedule: Q01DX009 (ip), vehicle: saline
  T/C: 100 % of control
[1]
  T/C: 109 % of control
dose: 300.0 micrograms/kg/injection, schedule: Q01DX009 (ip), vehicle: saline
  T/C: 102 % of control

## N#[O+].O.O=N[O-].O=N[O-].O=N[O-].O=N[O-].[Ru]
dose: 3.13 mg/kg/injection, schedule: Q04DX003 (ip), vehicle: water
  T/C: 113 % of control
dose: 6.25 mg/kg/injection, schedule: Q04DX003 (ip), vehicle: water
  T/C: 106 % of control and 118 % of control

## Cc1cc(=O)[nH]c2c1CCCC2
dose: 100.0 mg/kg/injection, schedule: Q04DX003 (ip), vehicle: saline sonified
  T/C: 107 % of control
dose: 200.0 mg/kg/injection, schedule: Q04DX003 (ip), vehicle: saline sonified
  T/C: 96 % of control
dose: 400.0 mg/kg/injection, schedule: Q04DX003 (ip), vehicle: saline sonified
  T/C: 92 % of control

## O=C1CCC2(ON=C(c3ccccc3)C2Br)O1 (centres undefined)
[2]
  T/C: 116 % of control
[3]
  T/C: 108 % of control
dose: 200.0 mg/kg/injection, schedule: Q01DX009 (ip), vehicle: saline with Tween-80
  T/C: 116 % of control

## COc1cccc(/C=C/c2ccnnc2)c1OC
dose: 50.0 mg/kg/injection, schedule: Q01DX009 (ip), vehicle: saline
  T/C: 104 % of control
dose: 100.0 mg/kg/injection, schedule: Q01DX009 (ip), vehicle: saline
  T/C: 108 % of control
dose: 200.0 mg/kg/injection, schedule: Q01DX009 (ip), vehicle: saline
  T/C: 100 % of control

## O=[N+]([O-])c1ccc(-c2csc(NCC3CCCO3)n2)cc1 (centres undefined)
dose: 50.0 mg/kg/injection, schedule: Q01DX009 (ip), vehicle: Klucel (hydroxypropylcellulose) (HPC)
  T/C: 101 % of control
dose: 100.0 mg/kg/injection, schedule: Q01DX009 (ip), vehicle: Klucel (hydroxypropylcellulose) (HPC)
  T/C: 100 % of control
dose: 200.0 mg/kg/injection, schedule: Q01DX009 (ip), vehicle: Klucel (hydroxypropylcellulose) (HPC)
  T/C: 100 % of control

## O=C(Nc1cc2cc([N+](=O)[O-])ccc2oc1=O)c1cccs1
dose: 15.0 mg/kg/injection, schedule: Q01DX005 (ip), vehicle: saline with Tween-80
  T/C: 99 % of control
dose: 30.0 mg/kg/injection, schedule: Q01DX005 (ip), vehicle: saline with Tween-80
  T/C: 90 % of control
dose: 60.0 mg/kg/injection, schedule: Q01DX005 (ip), vehicle: saline with Tween-80
  T/C: 91 % of control

## C[N+]1(C)CCC(C(=O)c2ccccc2)CC1
dose: 6.25 mg/kg/injection, schedule: Q01DX005 (ip), vehicle: saline
  T/C: 108 % of control
dose: 12.5 mg/kg/injection, schedule: Q01DX005 (ip), vehicle: saline
  T/C: 96 % of control
dose: 25.0 mg/kg/injection, schedule: Q01DX005 (ip), vehicle: saline
  T/C: 95 % of control

## COCCCOC(=O)NCCCCC([NH-])C(=O)O.COCCCOC(=O)NCCCCC([NH-])C(=O)O.[Cu+2] (centres undefined)
dose: 6.25 mg/kg/injection, schedule: Q01DX005 (ip), vehicle: Klucel (hydroxypropylcellulose) (HPC)
  T/C: 100 % of control
dose: 12.5 mg/kg/injection, schedule: Q01DX005 (ip), vehicle: Klucel (hydroxypropylcellulose) (HPC)
  T/C: 87 % of control
dose: 25.0 mg/kg/injection, schedule: Q01DX005 (ip), vehicle: Klucel (hydroxypropylcellulose) (HPC)
  T/C: 89 % of control

## CC(C)NCC(O)CC(c1ccccc1)c1ccccc1 (centres undefined)
[2]
  T/C: 95 % of control
[3]
  T/C: 111 % of control

From PubChem BioAssay AID330 (DTP/NCI, 2004)
